The values below come from ChEMBL document CHEMBL2429819, “Synthesis, antibacterial screening, and POM analyses of novel bis-isoxazolyl/pyrazolyl-1,3-diols” (2013).

The source made the active and inactive calls. The calls are words filed in the database; no cut-off is given here.

Common to all, as to type: functional
Common to all, as to conditions: for zone of inhibition at 100 µg/mL: read-out: DIZ

One assay has as its system Proteus vulgaris. Kind of assay: Antibacterial activity against Proteus vulgaris at 100 ug/ml after 24 hrs.
In another assay the test system is Escherichia coli. Kind of assay: Antibacterial activity against Escherichia coli at 100 ug/ml after 24 hrs.
Another assay concerns Bacillus subtilis. In words: Antibacterial activity against Bacillus subtilis at 100 ug/ml after 24 hrs.
Another assay relates to Muscodor albus. In words: Antibacterial activity against Muscodor albus at 100 ug/ml after 24 hrs.

Regarding `O=C(CC(=O)c1cc(C(=O)CC(=O)c2ccc(Cl)cc2)c(O)cc1O)c1ccc(Cl)cc1`, the figures for the zone of inhibition at 100 µg/mL in the assay on Proteus vulgaris, in the assay on Bacillus subtilis and in the assay on Muscodor albus were 11 mm, 13.2 mm and 15 mm, respectively. For the same compound, the “diameter of the inhibition zone (DIZ)” value with Escherichia coli was “inactive”.

In the case of `O=C(CC(=O)c1cc(C(=O)CC(=O)c2ccccc2)c(O)cc1O)c1ccccc1`, the zone of inhibition at 100 µg/mL in the assay with Proteus vulgaris stood at 13.3 mm; in the assay with Escherichia coli it was 12.4 mm; in the assay with Bacillus subtilis it was 15.8 mm; in the assay on Muscodor albus, 15.2 mm.

`Cc1ccc(-c2cc(-c3cc(-c4cc(-c5ccc(C)cc5)on4)c(O)cc3O)no2)cc1`: the zone of inhibition at 100 µg/mL worked out at 11.4 mm in the assay with Proteus vulgaris, 12.7 mm in the assay on Bacillus subtilis and 14.7 mm with Muscodor albus. Further, the “diameter of the inhibition zone (DIZ)” value in the assay with Escherichia coli is “inactive”.

As to `Oc1cc(O)c(-c2cc(-c3cccnc3)on2)cc1-c1cc(-c2cccnc2)on1`, the zone of inhibition at 100 µg/mL with Proteus vulgaris came out at 11.9 mm; in the assay on Escherichia coli it was 12.4 mm; in the assay with Bacillus subtilis it was 15.8 mm; in the assay on Muscodor albus, 16.1 mm.

As to `CC[C@H]1OC(=O)[C@H](C)[C@@H](O[C@H]2C[C@@](C)(OC)[C@@H](O)[C@H](C)O2)[C@H](C)[C@@H](O[C@@H]2O[C@H](C)C[C@H](N(C)C)[C@H]2O)[C@](C)(O)C[C@@H](C)C(=O)[C@H](C)[C@@H](O)[C@]1(C)O` [ERYTHROMYCIN], the zone of inhibition at 100 µg/mL in the assay with Proteus vulgaris was determined as 25.1 mm; in the assay with Escherichia coli, 27.4 mm; in the assay on Bacillus subtilis, 27.1 mm; in the assay on Muscodor albus, 26.1 mm.

Turning to `Oc1cc(O)c(-c2cc(-c3cccnc3)[nH]n2)cc1-c1cc(-c2cccnc2)[nH]n1`, the zone of inhibition at 100 µg/mL in the assay on Proteus vulgaris was 15.4 mm; with Escherichia coli it was 15.2 mm; in the assay with Bacillus subtilis, 14.2 mm; in the assay on Muscodor albus, 15.3 mm.

Turning to `Oc1cc(O)c(-c2cc(-c3ccccc3)on2)cc1-c1cc(-c2ccccc2)on1`, the figures for the zone of inhibition at 100 µg/mL in the assay on Proteus vulgaris, with Escherichia coli and in the assay with Bacillus subtilis were 15.2 mm, 17 mm and 11.2 mm, respectively. In the assay with Muscodor albus, the “diameter of the inhibition zone (DIZ)” value is “inactive”.

As for `COc1ccc(-c2cc(-c3cc(-c4cc(-c5ccc(OC)cc5)on4)c(O)cc3O)no2)cc1`, the zone of inhibition at 100 µg/mL was determined as 15.4 mm in the assay with Proteus vulgaris, 14.3 mm with Escherichia coli, 16.5 mm in the assay with Bacillus subtilis and 15.9 mm in the assay on Muscodor albus.

Consider `O=C(CC(=O)c1cc(C(=O)CC(=O)c2cccnc2)c(O)cc1O)c1cccnc1`, for which the zone of inhibition at 100 µg/mL in the assay with Proteus vulgaris came to 14.2 mm; in the assay on Escherichia coli, 16.4 mm; with Bacillus subtilis it was 11.9 mm; in the assay with Muscodor albus, 15.7 mm.

`Oc1cc(O)c(-c2cc(-c3ccc(Cl)cc3)[nH]n2)cc1-c1cc(-c2ccc(Cl)cc2)[nH]n1`: the zone of inhibition at 100 µg/mL in the assay with Proteus vulgaris worked out at 15.7 mm; in the assay with Escherichia coli, 15 mm; in the assay with Bacillus subtilis it was 16.2 mm; in the assay on Muscodor albus, 15.7 mm.

For the compound `COc1ccc(-c2cc(-c3cc(-c4cc(-c5ccc(OC)cc5)[nH]n4)c(O)cc3O)n[nH]2)cc1`, in the assay on Proteus vulgaris, the “diameter of the inhibition zone (DIZ)” value was “inactive”. Besides, the zone of inhibition at 100 µg/mL came out at 12.1 mm with Escherichia coli, 15.5 mm in the assay with Bacillus subtilis and 14.4 mm in the assay on Muscodor albus.

In the case of `O=C(CC(=O)c1cc(C(=O)CC(=O)c2cccs2)c(O)cc1O)c1cccs1`, the zone of inhibition at 100 µg/mL was determined as 14.9 mm with Proteus vulgaris, 15.5 mm in the assay on Escherichia coli, 15.5 mm with Bacillus subtilis and 14.9 mm in the assay on Muscodor albus.

Turning to `Oc1cc(O)c(-c2cc(-c3ccccc3)[nH]n2)cc1-c1cc(-c2ccccc2)[nH]n1`, the zone of inhibition at 100 µg/mL in the assay with Proteus vulgaris was determined as 15.2 mm; with Escherichia coli, 15.2 mm; in the assay on Bacillus subtilis, 12.2 mm; with Muscodor albus, 14 mm.

On to `Oc1cc(O)c(-c2cc(-c3ccc(Cl)cc3)on2)cc1-c1cc(-c2ccc(Cl)cc2)on1`, for which the zone of inhibition at 100 µg/mL in the assay with Proteus vulgaris was determined as 13.2 mm; in the assay on Escherichia coli, 12.7 mm; with Bacillus subtilis it was 13.7 mm; with Muscodor albus it was 15 mm.

`Oc1cc(O)c(-c2cc(-c3cccs3)on2)cc1-c1cc(-c2cccs2)on1`: in the assay on Proteus vulgaris, the “diameter of the inhibition zone (DIZ)” value is “inactive”. For the same compound, the values for the zone of inhibition at 100 µg/mL with Escherichia coli, with Bacillus subtilis and in the assay with Muscodor albus were 12.5 mm, 13.2 mm and 16 mm, respectively.

As for `Cc1ccc(C(=O)CC(=O)c2cc(C(=O)CC(=O)c3ccc(C)cc3)c(O)cc2O)cc1`, the zone of inhibition at 100 µg/mL with Proteus vulgaris stood at 12.6 mm; in the assay on Escherichia coli, 13.8 mm; with Bacillus subtilis, 16.2 mm; in the assay with Muscodor albus, 13.1 mm.

Turning to `NC[C@@H]1O[C@H](O[C@H]2[C@@H](O)[C@H](O[C@@H]3[C@@H](O)[C@H](N)C[C@H](N)[C@H]3O[C@H]3O[C@H](CN)[C@@H](O)[C@H](O)[C@H]3N)O[C@@H]2CO)[C@H](N)[C@@H](O)[C@@H]1O` [FRAMYCETIN], the zone of inhibition at 100 µg/mL in the assay with Proteus vulgaris amounted to 25.3 mm; with Escherichia coli it was 26.1 mm; in the assay with Bacillus subtilis it was 26.1 mm; in the assay with Muscodor albus, 25.8 mm.

On to `Oc1cc(O)c(-c2cc(-c3cccs3)[nH]n2)cc1-c1cc(-c2cccs2)[nH]n1`, for which the zone of inhibition at 100 µg/mL in the assay with Proteus vulgaris is 15.3 mm; in the assay with Escherichia coli it was 15.4 mm; with Muscodor albus it was 11.7 mm. In addition, the “diameter of the inhibition zone (DIZ)” value in the assay with Bacillus subtilis was “inactive”.

On to `Cc1ccc(-c2cc(-c3cc(-c4cc(-c5ccc(C)cc5)[nH]n4)c(O)cc3O)n[nH]2)cc1`, for which the zone of inhibition at 100 µg/mL in the assay with Proteus vulgaris worked out at 15.7 mm; with Escherichia coli, 14.7 mm; with Bacillus subtilis, 12.4 mm. Further, the “diameter of the inhibition zone (DIZ)” value with Muscodor albus is “inactive”.

Take `COc1ccc(C(=O)CC(=O)c2cc(C(=O)CC(=O)c3ccc(OC)cc3)c(O)cc2O)cc1`: the “diameter of the inhibition zone (DIZ)” value in the assay on Proteus vulgaris is “inactive”. Further, the values for the zone of inhibition at 100 µg/mL in the assay with Escherichia coli, in the assay with Bacillus subtilis and in the assay on Muscodor albus were 11.4 mm, 14.9 mm and 16.1 mm, respectively.
